Read-outs that look alike come from different tables or passages of the source.
Tested on: ALP in NHAC (normal human articular chondrocytes)
Assay: Alkaline Phosphatase (ALP) activity assay: ALP staining and quantitation in NHACs (prevention of chondrocyte hypertrophy)
Assay type: cell-based
Settings: human IL-1 beta 10 ng/mL, 12 days; for IC50: Fast Blue RR staining, high content imaging
Protocol: The compounds of the present invention were evaluated in the Alkaline Phosphatase (ALP) activity assay to determine the ability of the compounds to prevent chondrocyte hypertrophy in normal human articular chondrocytes (NHACs).
Normal human articular chondrocytes (NHACs) were purchased from PromoCell (Heidelberg, Germany) and grown in Chondrocyte Growth Medium (CGM; Lonza, Walkersville, Md.).
NHACs were expanded in Chondrocyte Growth Medium (CGM) from Lonza until they reached a 60-80% confluency. To initiate differentiation, 7,500 cells were plated/well with indicated test compound dose in 384-well Cell Carrier Ultra plates (Perkin Elmer) with DMEM (SH30022—HyClone) containing 10% FBS (35-015-CV—Corning), 1% Pen/Strep antibiotics (SV30010—HyClone), and 1% Normocin (50 mg/mL—InvivoGen). Cells with test compounds were incubated at 37° C., 5% CO2 for 5 hours and then added human IL-1 beta (AF-200-1B—Peprotech) to each well at a final concentration of 10 ng/mL and incubated at 37° C., 5% CO2 for 12 days.
To detect the presence of hypertrophic cells, NHACs were fixed with 4% paraformaldehyde and Hoechst 33342 (Invitrogen) dye for 30 minutes, rinsed in PBS, then stained with Fast Blue RR Salt (F0500—Sigma) with Naphthol AS-MX Phosphate Alkaline Solution, 0.25% (855—Sigma-Aldrich).
The staining was imaged by fluoresecent microscopy, using the 561 nm wavelength, and/or quantified by high content imaging with the ImageXpress Confocal (Molecular Devices, Sunnyvale, CA). Data analyses were performed with a customized multiwavelength cell-scoring application The activity of the compounds of the present invention in the ALP assay is summarized in Table 2.

[1] = Chondrocyte, 288 h, read-out: ALP in NHAC (% Efficacy)

Compound | IC50 (Chondrocyte, 288 h) | Emax [1] | Emax | IC50
COc1cc([C@@]23C[C@]2(C(=O)Nc2ccc(C)c(C(F)(F)F)c2)[C@H]2C[C@H](O)[C@@H]3O2)ccn1 (racemic) [Example 28, rac-(1R,2R,4S,5R,6S)-6-hydroxy-4-(2-methoxypyridin-4-yl)-N-(4-methyl-3-(trifluoromethyl)phenyl)-8-oxatricyclo[3.2.1.02,4]octane-2-carboxamide] | > 30 µM | 13% | – | –
COc1cc([C@@]23C[C@]2(C(=O)Nc2ccc(C(F)(F)F)c(Cl)c2)[C@H]2C[C@H](O)[C@@H]3O2)ccn1 (racemic) [Example 74, rac-(1R,2R,4S,5R,6S)—N-(3-chloro-4-(trifluoromethyl)phenyl)-6-hydroxy-4-(2-methoxypyridin-4-yl)-8-oxatricyclo[3.2.1.02,4]octane-2-carboxamide] | 3.4 µM | 77% | – | –
O=C(Nc1cc(C(F)(F)F)ccc1F)[C@]12C[C@@]1(c1cccc(C(F)(F)F)c1)[C@H]1O[C@@H]2C[C@@H]1O (racemic) [Example 81, rac-(1R,2R,4S,5R,6S)—N-(2-fluoro-5-(trifluoromethyl)phenyl)-6-hydroxy-4-(3-(trifluoromethyl)phenyl)-8-oxatricyclo[3.2.1.02,4]octane-2-carboxamide] | > 30 µM | 47% | – | –
Cc1c(NC(=O)[C@]23C[C@@]2(c2cn(C)nc2C(F)(F)F)[C@H]2O[C@@H]3C[C@@H]2O)cccc1C(F)(F)F (racemic) [Example 50, rac-(1R,2R,4S,5R,6S)-6-hydroxy-4-(1-methyl-3-(trifluoromethyl)-1H-pyrazol-4-yl)-N-(2-methyl-3-(trifluoromethyl)phenyl)-8-oxatricyclo[3.2.1.02,4]octane-2-carboxamide] | > 30 µM | 33% | – | –
O=C(Nc1cc(C(F)(F)F)ccn1)[C@]12C[C@@]1(c1ccnc(F)c1)[C@H]1O[C@@H]2C[C@@H]1O (racemic) [Example 1, rac-(1R,2R,4S,5R,6S)-4-(2-fluoropyridin-4-yl)-6-hydroxy-N-(4-(trifluoromethyl)pyridin-2-yl)-8-oxatricyclo[3.2.1.02,4]octane-2-carboxamide] | > 30 µM | 28% | – | –
Cn1cc([C@@]23C[C@]2(C(=O)Nc2ccc(Cl)c(C(F)(F)F)c2)[C@H]2C[C@H](O)[C@@H]3O2)c(C(F)(F)F)n1 (racemic) [Example 58, rac-(1R,2R,4S,5R,6S)—N-(4-chloro-3-(trifluoromethyl)phenyl)-6-hydroxy-4-(1-methyl-3-(trifluoromethyl)-1H-pyrazol-4-yl)-8-oxatricyclo[3.2.1.02,4]octane-2-carboxamide] | > 30 µM | 29% | – | –
O=C(Nc1cc(F)cc(C(F)(F)F)c1)[C@]12C[C@@]1(c1ccnc(F)c1)[C@H]1O[C@@H]2C[C@@H]1O (racemic) [Example 16, rac-(1R,2R,4S,5R,6S)—N-(3-fluoro-5-(trifluoromethyl)phenyl)-4-(2-fluoropyridin-4-yl)-6-hydroxy-8-oxatricyclo[3.2.1.02,4]octane-2-carboxamide] | > 30 µM | 34% | – | –
O=C(Nc1cccc(C(F)(F)F)c1)[C@]12C[C@@]1(c1cccc(C(F)(F)F)c1)[C@H]1O[C@@H]2C[C@@H]1O (racemic) [Example 67, rac-(1R,2R,4S,5R,6S)-6-hydroxy-N,4-bis(3-(trifluoromethyl)phenyl)-8-oxatricyclo[3.2.1.02,4]octane-2-carboxamide] | 27 µM | 54% | – | –
COc1cc([C@@]23C[C@]2(C(=O)Nc2cc(C(F)(F)F)cc(C4CC4)n2)[C@H]2C[C@H](O)[C@@H]3O2)ccn1 (racemic) [Example 23, rac-(1R,2R,4S,5R,6S)—N-(6-cyclopropyl-4-(trifluoromethyl)pyridin-2-yl)-6-hydroxy-4-(2-methoxypyridin-4-yl)-8-oxatricyclo[3.2.1.02,4]octane-2-carboxamide] | > 30 µM | 4% | – | –
Cn1cc([C@@]23C[C@]2(C(=O)Nc2cc(C(F)(F)F)ccn2)[C@H]2C[C@H](O)[C@@H]3O2)c(C(F)(F)F)n1 (racemic) [Example 43, rac-(1R,2R,4S,5R,6S)-6-hydroxy-4-(1-methyl-3-(trifluoromethyl)-1H-pyrazol-4-yl)-N-(4-(trifluoromethyl)pyridin-2-yl)-8-oxatricyclo[3.2.1.02,4]octane-2-carboxamide] | > 30 µM | 49% | – | –
Cc1cc(C(F)(F)F)cc(NC(=O)[C@]23C[C@@]2(c2ccnc(F)c2)[C@H]2O[C@@H]3C[C@@H]2O)n1 (racemic) [Example 7, rac-(1R,2R,4S,5R,6S)-4-(2-fluoropyridin-4-yl)-6-hydroxy-N-(6-methyl-4-(trifluoromethyl)pyridin-2-yl)-8-oxatricyclo[3.2.1.02,4]octane-2-carboxamide] | > 30 µM | 0% | – | –
Cn1cc([C@@]23C[C@]2(C(=O)Nc2ccc(C#N)c(C(F)(F)F)c2)[C@H]2C[C@H](O)[C@@H]3O2)c(C(F)(F)F)n1 (racemic) [Example 68, rac-(1R,2R,4S,5R,6S)—N-(4-cyano-3-(trifluoromethyl)phenyl)-6-hydroxy-4-(1-methyl-3-(trifluoromethyl)-1H-pyrazol-4-yl)-8-oxatricyclo[3.2.1.02,4]octane-2-carboxamide] | > 30 µM | 50% | – | –
Cc1ccc(C(F)(F)F)cc1NC(=O)[C@]12C[C@@]1(c1cn(C)nc1C(F)(F)F)[C@H]1O[C@@H]2C[C@@H]1O (racemic) [Example 53, rac-(1R,2R,4S,5R,6S)-6-hydroxy-4-(1-methyl-3-(trifluoromethyl)-1H-pyrazol-4-yl)-N-(2-methyl-5-(trifluoromethyl)phenyl)-8-oxatricyclo[3.2.1.02,4]octane-2-carboxamide] | > 30 µM | 23% | – | –
Cn1cc([C@@]23C[C@]2(C(=O)Nc2ccc(F)c(C(F)(F)F)c2)[C@H]2C[C@H](O)[C@@H]3O2)c(C(F)(F)F)n1 (racemic) [Example 55, rac-(1R,2R,4S,5R,6S)-N-(4-fluoro-3-(trifluoromethyl)phenyl)-6-hydroxy-4-(1-methyl-3-(trifluoromethyl)-1H-pyrazol-4-yl)-8-oxatricyclo[3.2.1.02,4]octane-2-carboxamide] | > 30 µM | 14% | – | –
O=C(Nc1ccc(C(F)(F)F)c(F)c1)[C@]12C[C@@]1(c1ccnc(F)c1)[C@H]1O[C@@H]2C[C@@H]1O (racemic) [Example 2, rac-(1R,2R,4S,5R,6S)-N-(3-fluoro-4-(trifluoromethyl)phenyl)-4-(2-fluoropyridin-4-yl)-6-hydroxy-8-oxatricyclo[3.2.1.02,4]octane-2-carboxamide] | > 30 µM | 28% | – | –
(1R,2R,4S,5R,6S)—N-(2-cyano-5-(trifluoromethyl)phenyl)-6-hydroxy-4-(2-methoxypyridin-4-yl)-8-oxatricyclo[3.2.1.02,4]octane-2-carboxamide or (1S,2S,4R,5S,6R)—N-(2-cyano-5-(trifluoromethyl)phenyl)-6-hydroxy-4-(2-methoxypyridin-4-yl)-8-oxatricyclo[3.2.1.02,4]octane-2-carboxamide [Example 39b] | – | – | (97) % | 0.25 µM
COc1cc([C@@]23C[C@]2(C(=O)Nc2cc(C(F)(F)F)ccc2OC)[C@H]2C[C@H](O)[C@@H]3O2)ccn1 (racemic) [Example 36, rac-(1R,2R,4S,5R,6S)-6-hydroxy-N-(2-methoxy-5-(trifluoromethyl)phenyl)-4-(2-methoxypyridin-4-yl)-8-oxatricyclo[3.2.1.02,4]octane-2-carboxamide] | 18 µM | 65% | – | –
Cn1cc([C@@]23C[C@]2(C(=O)Nc2cccc(C(F)(F)F)c2)[C@H]2C[C@H](O)[C@@H]3O2)c(C(F)(F)F)n1 (racemic) [Example 49, rac-(1R,2R,4S,5R,6S)-6-hydroxy-4-(1-methyl-3-(trifluoromethyl)-1H-pyrazol-4-yl)-N-(3-(trifluoromethyl)phenyl)-8-oxatricyclo[3.2.1.02,4]octane-2-carboxamide] | > 30 µM | 35% | – | –
COc1cc([C@@]23C[C@]2(C(=O)Nc2cc(C#N)cc(C(F)(F)F)c2)[C@H]2C[C@H](O)[C@@H]3O2)ccn1 (racemic) [Example 72, rac-(1R,2R,4S,5R,6S)—N-(3-cyano-5-(trifluoromethyl)phenyl)-6-hydroxy-4-(2-methoxypyridin-4-yl)-8-oxatricyclo[3.2.1.02,4]octane-2-carboxamide] | > 30 µM | 37% | – | –
CCOc1cc(C(F)(F)F)cc(NC(=O)[C@]23C[C@@]2(c2cn(C)nc2C(F)(F)F)[C@H]2O[C@@H]3C[C@@H]2O)n1 (racemic) [Example 48, rac-(1R,2R,4S,5R,6S)—N-(6-ethoxy-4-(trifluoromethyl)pyridin-2-yl)-6-hydroxy-4-(1-methyl-3-(trifluoromethyl)-1H-pyrazol-4-yl)-8-oxatricyclo[3.2.1.02,4]octane-2-carboxamide] | > 30 µM | 40% | – | –

Source: patent publication US12365692B2, “6-hydroxy-8-oxatricyclo[3.2.1.02,4]octane-2-carboxamide derivatives for inducing chondrogenesis for treating joint damage” (NOVARTIS AG, priority 2018, dated 2025)
